# Patent publication US9187467B2, “2-phenyl benzothiazole linked imidazole compounds as potential anticancer agents and process for the preparation thereof” (Council of Scientific and Industrial Research, priority 2012, dated 2015)
# Where two headings read alike, the source gives them in different places.
# Assays:
# [1] = test system: MDA-MB-231/ATCC; assay: SRB anticancer assay, breast; type: cell-based, human; parameters: Log10GI50: unit not given here; conditions: for GI50: 48 h; for Log10GI50: MDA-MB-231/ATCC, present compounds
# [2] = test system: UACC-257; assay: SRB anticancer assay, melanoma; type: cell-based, human; conditions: for GI50: Homo sapiens, UACC-257, 48 h; for Log10GI50: UACC-257, present compounds
# [3] = test system: NCI-H322M; assay: SRB anticancer assay, non-small lung; type: cell-based, human; conditions: Homo sapiens, 48 h
# [4] = test system: SK-OV-3; assay: SRB anticancer assay, ovarian; type: cell-based, human; conditions: Homo sapiens, SK-OV-3, 48 h
# [5] = test system: SNB-19; assay: SRB anticancer assay, CNS; type: cell-based, human; parameters: Log10GI50: unit not given here; conditions: for GI50: Homo sapiens, SNB-19, 48 h; for Log10GI50: SNB-19, present compounds
# [6] = test system: NCI-H23; assay: SRB anticancer assay, non-small lung; type: cell-based, human; conditions: for GI50: Homo sapiens, NCI-H23, 48 h; for Log10GI50: NCI-H23, present compounds
# [7] = test system: MCF-7 (Breast carcinoma) cells; assay: Cell cycle distribution by flow cytometry (FACS); type: cell-based; conditions: MCF-7 cells, 2 μM, 24h
# Experimental: FIG. 1 represents FACS analysis of cell cycle distribution of MCF-7 cells after treatment with compounds CA-4, 21a, 21d, 4c, 6d, 6e, 6f, 7d, 7h and 7j at 2 μM concentration for 24h and control cells are the cells treated with DMSO (0.25%).
# (§1) In order to investigate the mechanism underlying the anti-proliferative effect of the compounds the cell cycle distribution was analyzed in K562 (Leukemia) and MCF-7 (Breast carcinoma) cell lines by flow cytometry. Compounds CA-4, 21a, 21d, 4c, 6d, 6e, 6f, 7d, 7h and 7j have shown 1.72%, 14%, 12%, 14%, 12%, 14%, 14%, 16%, 16% &12% in K562 cells and 49.63%, 21%, 20%, 18%, 21%, 21%, 21%, 24%, 23% and 23% in MCF-7 cell line respectively. […] Thus compound 7d was considered for further studies (FIG. 1).
# [8] = test system: SN12C; assay: SRB anticancer assay, renal; type: cell-based, human; parameters: Log10GI50: unit not given here; conditions: for GI50: Homo sapiens, 48 h; for Log10GI50: present compounds
# [9] = test system: SF-268; assay: SRB anticancer assay, CNS; type: cell-based, human; parameters: Log10GI50: unit not given here; conditions: for GI50: Homo sapiens, SF-268, 48 h; for Log10GI50: SF-268, present compounds
# [10] = test system: HS 578T; assay: SRB anticancer assay, breast; type: cell-based, human; parameters: Log10GI50: unit not given here; conditions: for GI50: Homo sapiens, 48 h
# [11] = test system: K562 (Leukemia) cells; assay: Cell cycle distribution by flow cytometry; type: cell-based
# Experimental: as §1
# [12] = test system: PC-3; assay: SRB anticancer assay, prostate; type: cell-based, human; parameters: Log10GI50: unit not given here; conditions: for GI50: Homo sapiens, PC-3, 48 h; for Log10GI50: PC-3, present compounds
# [13] = test system: A498; assay: SRB anticancer assay, renal; type: cell-based, human; parameters: Log10GI50: unit not given here; conditions: for Log10GI50: A498, present compounds; for GI50: Homo sapiens, A498, 48 h
# [14] = test system: BT-549; assay: SRB anticancer assay, breast; type: cell-based, human; parameters: Log10GI50: unit not given here; conditions: for Log10GI50: BT-549, present compounds; for GI50: Homo sapiens, BT-549, 48 h
# [15] = test system: OVCAR-5; assay: SRB anticancer assay, ovarian; type: cell-based, human; conditions: Homo sapiens, OVCAR-5, 48 h
# [16] = test system: NCI-H226; assay: SRB anticancer assay, non-small lung; type: cell-based, human; conditions: Homo sapiens, NCI-H226, 48 h
# [17] = test system: UO-31; assay: SRB anticancer assay, renal; type: cell-based, human; parameters: Log10GI50: unit not given here; conditions: for GI50: Homo sapiens, UO-31, 48 h; for Log10GI50: UO-31, present compounds
# [18] = test system: UACC-62; assay: SRB anticancer assay, melanoma; type: cell-based, human; conditions: for GI50: Homo sapiens, UACC-62, 48 h; for Log10GI50: UACC-62, present compounds
# [19] = test system: IGROV1; assay: SRB anticancer assay, ovarian; type: cell-based, human; conditions: Homo sapiens, IGROV-1; IGROV1, 48 h
# [20] = test system: HL-60 (TB); assay: SRB anticancer assay, leukemia; type: cell-based, human; parameters: Log10GI50: unit not given here; conditions: for Log10GI50: HL-60(TB), present compounds; for GI50: Homo sapiens, HL-60, 48 h
# [21] = test system: SK-MEL-2; assay: SRB anticancer assay, melanoma; type: cell-based, human; conditions: for GI50: Homo sapiens, SK-MEL-2, 48 h; for Log10GI50: SK-MEL-2, present compounds
# [22] = test system: RXF 393; assay: SRB anticancer assay, renal; type: cell-based, human; parameters: Log10GI50: unit not given here; conditions: for GI50: Homo sapiens, RXF 393, 48 h; for Log10GI50: RXF 393, present compounds
# [23] = test system: OVCAR-8; assay: SRB anticancer assay, ovarian; type: cell-based, human; parameters: Log10GI50: unit not given here; conditions: for GI50: Homo sapiens, OVCAR-8, 48 h; for Log10GI50: OVCAR-8, present compounds
# [24] = test system: SNB-75; assay: SRB anticancer assay, CNS; type: cell-based, human; parameters: Log10GI50: unit not given here; conditions: for GI50: Homo sapiens, SNB-75, 48 h; for Log10GI50: SNB-75, present compounds
# [25] = test system: MALME-3M; assay: SRB anticancer assay, melanoma; type: cell-based, human; parameters: Log10GI50: unit not given here; conditions: for GI50: Homo sapiens, Malme-3M, 48 h; for Log10GI50: MALME-3M, present compounds
# [26] = test system: T-47D; assay: SRB anticancer assay, breast; type: cell-based; conditions: Homo sapiens, T47D, 48 h
# [27] = test system: MCF7; assay: SRB anticancer assay, breast; type: cell-based, human; conditions: Homo sapiens, MCF7, 48 h
# [28] = test system: HCT-116; assay: SRB anticancer assay, colon; type: cell-based, human; conditions: Homo sapiens, HCT-116, 48 h
# [29] = test system: SK-MEL-28; assay: SRB anticancer assay, melanoma; type: cell-based, human; parameters: Log10GI50: unit not given here; conditions: for GI50: Homo sapiens, SK-MEL-28, 48 h; for Log10GI50: SK-MEL-28, present compounds
# [30] = test system: ACHN; assay: SRB anticancer assay, renal; type: cell-based, human; parameters: Log10GI50: unit not given here; conditions: for GI50: Homo sapiens, 48 h; for Log10GI50: present compounds
# [31] = test system: A549/ATCC; assay: SRB anticancer assay, non-small lung; type: cell-based, human; parameters: Log10GI50: unit not given here; conditions: for GI50: Homo sapiens, 48 h; for Log10GI50: present compounds
# [32] = Homo sapiens, MDA-MB-231, 48 h, MDA-MB-231/ATCC (row head MDA-MB-), read-out: GI50
structure (smiles),measurement,setting,value
"COc1ccc(-c2cncn2-c2ccc(-c3nc4cc(OC)c(OC)c(OC)c4s3)cc2)cc1N [Compound 7j, 2-Methoxy-5-(1-(4-(5,6,7-trimethoxybenzo[d]thiazol-2-yl)phenyl)-1H-imidazol-5-yl)benzeneamine]",GI50,[1]; [32],> 100 µM
same,GI50,"[1]; Homo sapiens, MDA-MB-231, 48 h, row head printed 231/ATCC (second line of MDA-MB-231/ATCC), read-out: GI50",28.3 µM
same,Log10GI50,[1],>−4.0
same,GI50,[2],> 100 µM
same,Log10GI50,[2],>−4.0 log10(M)
same,GI50,[3],25.7 µM
same,GI50,[4],> 100 µM
same,GI50,[5],> 100 µM
same,Log10GI50,[5],>−4.0
same,GI50,[6],4.76 µM
same,Log10GI50,[6],−5.32 log10(M)
same,cells in G2/M phase,[7],23%
same,GI50,[8],9.44 µM
same,Log10GI50,[8],−5.03
same,GI50,[9],47 µM
same,Log10GI50,[9],−4.33
same,GI50,[10],6.21 µM
same,Log10GI50,[10]; present compounds,−4.55
same,cells in G2/M phase,[11],12%
same,GI50,[12],2.59 µM
same,Log10GI50,[12],−5.59
same,Log10GI50,[13],−5.32
same,GI50,[13],4830 nM
same,Log10GI50,[14],−5.21
same,GI50,[14],3.02 µM
same,GI50,[15],> 100 µM
same,GI50,[16],6.7 µM
same,GI50,[17],1.99 µM
same,Log10GI50,[17],−5.70
same,GI50,[18],> 100 µM
same,Log10GI50,[18],−5.04 log10 M
same,GI50,[19],4.9 µM
same,Log10GI50,[20],−5.66
same,GI50,[20],2200 nM
same,GI50,[21],6.04 µM
same,Log10GI50,[21],−5.22 M
same,GI50,[22],5.98 µM
same,Log10GI50,[22],−5.22
same,GI50,[23],6.19 µM
same,Log10GI50,[23],−5.21
same,GI50,[24],52.3 µM
same,Log10GI50,[24],−4.28
same,GI50,[25],2.48 µM
same,Log10GI50,[25],−5.61
same,GI50,[26],8.6 µM
same,GI50,[27],4.07 µM
same,GI50,[28],3.78 µM
same,GI50,[29],13.7 µM
same,Log10GI50,[29],−4.86
same,GI50,[30],5.59 µM
same,Log10GI50,[30],−5.25
same,GI50,[31],5.77 µM
same,Log10GI50,[31],−5.24
"COc1cc(-c2cncn2-c2ccc(-c3nc4ccc(F)cc4s3)cc2)ccc1F [Compound 4c, 6-Fluoro-2-(4-(5-(4-fluoro-3-methoxyphenyl)-1H-imidazol-1-yl)phenyl)benzo[d]thiazole]",GI50,[1]; [32],32.2 µM
same,Log10GI50,[1],−4.49
same,GI50,[1]; listed as head printed 231/ATCC (second line of MDA-MB-231/ATCC),—a
same,GI50,[2],4.11 µM
same,Log10GI50,[2],−5.39 log10(M)
same,GI50,[3],36.3 µM
same,GI50,[4],> 100 µM
same,GI50,[5],20.6 µM
same,Log10GI50,[5],>−4.0
same,GI50,[6],8.25 µM
same,Log10GI50,[6],−5.08 log10(M)
same,cells in G2/M phase,[7],18%
same,GI50,[8],31.9 µM
same,Log10GI50,[8],−4.50
same,GI50,[9],12.7 µM
same,Log10GI50,[9],−4.51
same,GI50,[10],11.5 µM
same,cells in G2/M phase,[11],14%
same,GI50,[12],3.47 µM
same,Log10GI50,[12],−5.46
same,Log10GI50,[13],−7.36
same,GI50,[13],43.2 nM
same,Log10GI50,[14],−4.94
same,GI50,[14],7.98 µM
same,GI50,[15],> 100 µM
same,GI50,[16],49.3 µM
same,GI50,[17],16.5 µM
same,Log10GI50,[17],−4.78
same,GI50,[18],8.67 µM
same,Log10GI50,[18],−5.06 log10 M
same,GI50,[19],15.4 µM
same,Log10GI50,[20],−5.60
same,GI50,[20],2500 nM
same,GI50,[21],39.7 µM
same,Log10GI50,[21],−4.40 M
same,GI50,[22],13.5 µM
same,Log10GI50,[22],−4.87
same,GI50,[23],15.2 µM
same,Log10GI50,[23],−4.82
same,GI50,[24],12.6 µM
same,Log10GI50,[24],−4.69
same,GI50,[25],11.1 µM
same,Log10GI50,[25],−4.95
same,GI50,[26],11.1 µM
same,GI50,[27],23.5 µM
same,GI50,[28],4.36 µM
same,GI50,[29],35.1 µM
same,Log10GI50,[29],−4.45
same,GI50,[30],29.1 µM
same,Log10GI50,[30],−4.54
same,GI50,[31],12.3 µM
same,Log10GI50,[31],−4.91
